Experiments:
Format in all cases: cell-based, Escherichia coli
[1] = tested on: E. coli mutant CA8006; assay: Disc diffusion, zone of inhibition; details: 250 μg/disc, Luria agar
Protocol: (§1) To ascertain the involvement of gyrA mutation, another E.coli strain NK 5819 which is also GyrA″ and nalidixic acid resistant was tested for arteether sensitivity. As expected, strain NK5819 was also sensitive only to a-isomer of arteether. […] The assays for arteether sensitivity was performed by the standard single disk diffusion method (Bauer et al, 1966). As a next step, we isolated gyrA mutants of E.coli strain CA 8000, which is otherwise Gyr+ and nalidixic acid sensitive. The gyrA mutants of CA8000 were isolated as nalidixic acid resistant colonies (20 ug/ml), after mutagenic treatment with NTG ([…]). The isolated CA8000 gyrA mutants were also sensitive only to a isomer of arteether. […] To define precisely the involvement of gyr genes only in the a-arteether sensitivity, we utilised two recombinant clones (pMK 90 and pMK47 containing functional gyr A and gyrB genes respectively) in trans-complementation assays. For this purpose, we mobilized the plasmid clones into the E.coli gyr mutant strains. The resulting transformants were now nalidixic acid sensitive and a-arteether resistant. This constituted the direct evidence supporting our observation that DNA gyrase enzyme alone is involved in conferring a-arteether sensitivity to E.coli strain. […] DNA gyrase enzyme is essential for the bacterial growth. This enzyme transiently breaks the DNA strands and introduces negative superhelical turns in an ATP-dependent process. The E.coli DNA gyrase enzyme is a tetramer with two subunits A and B. These two subunits are nalidixic acid and coumermycin sensitive respectively (U.S. Pat. No. 6,127,405 and a co-pending patent).
(§2) In order to develop an arteether resistant mutants from an arteether sensitive strains a reverse strategy was applied. Quinoline/fluoroquinolone (Q/FQs) resistant strains were developed spontaneously i.e. screening overnight log phase culture of the Quinolone/fluoroquinolone sensitive i.e. arteether resistant strain (E coli CA 8000) on the poison agar plate of the Q/FQs. The Q/FQ resistant mutants which appeared on the poison agar plates were first purified through single colony purification and then checked for their arteether sensitivity. These arteether sensitive mutants on the contrary when checked for their Q/Fqs resistance they show different level of Q/FQs resistance.
(§3) The strains of E coli mutants were grown on Luria agar medium and beta-arteether (250 μg/disc) was applied on disc. The clear zone around the disc killing the bacteria is called Zone of Inhibition (ZOI). This is the measure of sensitivity of the strain towards the compound […].

[2] = tested on: E. coli mutant CA8007; assay: Disc diffusion, zone of inhibition; details: 250 μg/disc, Luria agar
Protocol: as §1, §2, §3

[3] = tested on: E. coli mutant CA8001; assay: Disc diffusion, zone of inhibition; details: 250 μg/disc, Luria agar
Protocol: as §1, §2, §3

[4] = tested on: E. coli mutant CA8002; assay: Disc diffusion, zone of inhibition; details: 250 μg/disc, Luria agar
Protocol: as §1, §2, §3

[5] = tested on: E. coli mutant CA8010; assay: Disc diffusion, zone of inhibition; details: 250 μg/disc, Luria agar
Protocol: as §1, §2, §3

[6] = tested on: E. coli mutant CA8003; assay: Disc diffusion, zone of inhibition; details: 250 μg/disc, Luria agar
Protocol: as §1, §2, §3

[7] = tested on: E. coli mutant CA8012; assay: Disc diffusion, zone of inhibition; details: 250 μg/disc, Luria agar
Protocol: as §1, §2, §3

[8] = tested on: E. coli mutant CA8009; assay: Disc diffusion, zone of inhibition; details: 250 μg/disc, Luria agar
Protocol: as §1, §2, §3

[9] = tested on: gyr mutant strains of E.coli; assay: Arteether sensitivity of gyr mutants; details: gyr mutants DH5a, NK5819, MTCC 482, CA8000 gyrA mutants
Protocol: as §1, with “This enzyme transiently breaks the DNA strands and introduces negative superhelical turns in an ATP-dependent process. The E.coli DNA gyrase enzyme is a tetramer with two subunits A and B. These two subunits are nalidixic acid and coumermycin sensitive respectively (U.S. Pat. No. 6,127,405 and a co-pending patent).” left out

[10] = tested on: E. coli DH5 α (gyrA−); assay: Disc diffusion, zone of inhibition; details: 250 μg/disc, Luria agar
Protocol: as §1, §3

[11] = tested on: E. coli NK5819 (gyrA−); assay: Disc diffusion, zone of inhibition; details: 250 μg/disc, Luria agar
Protocol: as §1, §3

[12] = tested on: E. coli ET8000 (gyrA−); assay: Disc diffusion, zone of inhibition; details: 250 μg/disc, Luria agar
Protocol: as §1, §3

CCO[C@H]1O[C@@H]2O[C@@]3(C)CC[C@H]4[C@H](C)CC[C@@H]([C@H]1C)[C@@]24OO3 [beta-arteether]
Net ZOI in mm [1]: 11 mm | Net ZOI in mm [2]: 8 mm | Net ZOI in mm [3]: 10 mm | Net ZOI in mm [4]: 5 mm | Net ZOI in mm [5]: 10 mm | Net ZOI in mm [6]: 9 mm | Net ZOI in mm [7]: 8 mm | Net ZOI in mm [8]: 14 mm | Sensitivity [9]: none of the above described gyr mutants were sensitive | Net ZOI in mm [10]: 5 mm | Net ZOI in mm [11]: 7 mm | Net ZOI in mm [12]: 5 mm
